According to patent publication US20110039721A1, “METHOD FOR PREDICTION ABOUT CARCINOGENICITY OF SUBSTANCE IN RODENT” (Chemicals Evaluation and Research Institute, priority 2007, published 2011):

Key:
[1] = tested on: rodent; details: in vivo; cited from earlier work
[2] = tested on: liver; details: in vivo; cited from earlier work
[3] = tested on: mRNA expressed from the genes (A) to (D) in rat liver; experiment: Behavior of genes (mRNA expression level, oligo-DNA microarray) in rat liver after 28-day oral administration; format: in vivo
Summary of the method: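 Liver mRNA levels were compared with matched vehicle groups, with a shift of at least 1.5-fold up or down deemed significant unless its direction disagreed with other carcinogens. Test substances were dosed orally by gavage daily for 28 days to 5-week-old male F344 rats, four per group.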

[4] = (C), Unigene Rn.120914, defined direction +, rat liver, oral once daily 28 days
[5] = gene group (A), Unigene No. Rn.167075, mRNA vs vehicle control group
[6] = gene group (C), Unigene No. Rn.120914, mRNA vs vehicle control group

Compound: O=NN1CCOCC1 [TS014, N-Nitrosomorpholine]
- Carcinogenicity [1]: C+
- Liver carcinogenicity [2]: Cr+
- Behavior of gene caused by administration of chemical substance, Gene No. 4846 ([3]; (A), Unigene Rn.144554, defined direction +, rat liver, oral once daily 28 days): +
- Behavior of gene caused by administration of chemical substance, Gene No. 4218 ([3]; (A), Unigene Rn.167075, defined direction +, rat liver, oral once daily 28 days, significant = 1.5 times or more or 1/1.5 or less of control): +
- Behavior of gene caused by administration of chemical substance, Gene No. 2026 ([3]; (A), Unigene Rn.167075, defined direction −, rat liver, oral once daily 28 days): +
- Behavior of gene caused by administration of chemical substance, Gene No. 6182 ([3]; (A), Unigene Rn.5834, defined direction +, rat liver, oral once daily 28 days): +
- Behavior of gene caused by administration of chemical substance, Gene No. 5600 ([3]; (A), Unigene Rn.9836, defined direction +, rat liver, oral once daily 28 days): +
- Behavior of gene caused by administration of chemical substance, Gene No. 1494 ([3]; (B), Unigene Rn.1430, defined direction −, rat liver, oral once daily 28 days): +
- Behavior of gene caused by administration of chemical substance, Gene No. 2045 ([3]; (B), Unigene Rn.19329, defined direction +, rat liver, oral once daily 28 days): −
- Behavior of gene caused by administration of chemical substance, Gene No. 2203 ([3]; (B), Unigene Rn.21240, defined direction +, rat liver, oral once daily 28 days): −
- Behavior of gene caused by administration of chemical substance, Gene No. 533 ([3]; (C), Unigene Rn.106184, defined direction +, rat liver, oral once daily 28 days): −
- Behavior of gene caused by administration of chemical substance, Gene No. 725 ([3]; (C), Unigene Rn.108075, defined direction −, rat liver, oral once daily 28 days): −
- Behavior of gene caused by administration of chemical substance, Gene No. 1163 ([3]; (C), Unigene Rn.11766, defined direction +, rat liver, oral once daily 28 days): +
- Behavior of gene caused by administration of chemical substance, Gene No. 4973 ([3]; (C), Unigene Rn.118529, defined direction −, rat liver, oral once daily 28 days): −
- Behavior of gene caused by administration of chemical substance, Gene No. 4095 ([3]; (C), Unigene Rn.119024, defined direction −, rat liver, oral once daily 28 days): −
- Behavior of gene caused by administration of chemical substance, Gene No. 1334 [3, 4]: −
- Behavior of gene caused by administration of chemical substance, Gene No. 6620 [3, 4]: −
- Behavior of gene caused by administration of chemical substance, Gene No. 6303 ([3]; (C), Unigene Rn.123063, defined direction −, rat liver, oral once daily 28 days): −
- Behavior of gene caused by administration of chemical substance, Gene No. 5878 ([3]; (C), Unigene Rn.143213, defined direction −, rat liver, oral once daily 28 days): −
- Behavior of gene caused by administration of chemical substance, Gene No. 1131 ([3]; (C), Unigene Rn.144946, defined direction −, rat liver, oral once daily 28 days): −
- Behavior of gene caused by administration of chemical substance, Gene No. 1562 ([3]; (C), Unigene Rn.14744, defined direction −, rat liver, oral once daily 28 days): −
- Behavior of gene caused by administration of chemical substance, Gene No. 1741 ([3]; (C), Unigene Rn.1647, defined direction −, rat liver, oral once daily 28 days): −
- Behavior of gene caused by administration of chemical substance, Gene No. 893 ([3]; (C), Unigene Rn.164817, defined direction +, rat liver, oral once daily 28 days): −
- Behavior of gene caused by administration of chemical substance, Gene No. 6026 ([3]; (C), Unigene Rn.167685, defined direction −, rat liver, oral once daily 28 days): −
- Behavior of gene caused by administration of chemical substance, Gene No. 154 ([3]; (C), Unigene Rn.185941, defined direction −, rat liver, oral once daily 28 days): −
- Behavior of gene caused by administration of chemical substance, Gene No. 1993 ([3]; (C), Unigene Rn.18728, defined direction −, rat liver, oral once daily 28 days): +
- Behavior of gene caused by administration of chemical substance, Gene No. 813 ([3]; (C), Unigene Rn.201760, defined direction +, rat liver, oral once daily 28 days): +
- Behavior of gene caused by administration of chemical substance, Gene No. 2494 ([3]; (C), Unigene Rn.23969, defined direction +, rat liver, oral once daily 28 days): −
- Behavior of gene caused by administration of chemical substance, Gene No. 2546 ([3]; (C), Unigene Rn.24561, defined direction −, rat liver, oral once daily 28 days): −
- Behavior of gene caused by administration of chemical substance, Gene No. 3776 ([3]; (C), Unigene Rn.43232, defined direction −, rat liver, oral once daily 28 days): −
- Behavior of gene caused by administration of chemical substance, Gene No. 3929 ([3]; (C), Unigene Rn.4620, defined direction +, rat liver, oral once daily 28 days): −
- Behavior of gene caused by administration of chemical substance, Gene No. 1119 ([3]; (C), Unigene Rn.9757, defined direction +, rat liver, oral once daily 28 days): −
- Behavior of gene caused by administration of chemical substance, Gene No. 6742 ([3]; (C), Unigene Rn.9779, defined direction +, rat liver, oral once daily 28 days): −
- Behavior of gene caused by administration of chemical substance, Gene No. 5634 ([3]; (C), Unigene Rn.9862, defined direction −, rat liver, oral once daily 28 days): −
- Behavior of gene caused by administration of chemical substance, Gene No. 5726 ([3]; (D), Unigene Rn.9939, defined direction −, rat liver, oral once daily 28 days): −

Compound: ClC1=C(Cl)C2(Cl)C3C4C=CC(C4)C3C1(Cl)C2(Cl)Cl (stereo not shown) [TS015, Aldrin]
- Carcinogenicity [1]: C+
- Liver carcinogenicity [2]: Cr−
- Behavior of gene caused by administration of chemical substance, Gene No. 4846 ([3]; gene group (A), Unigene No. Rn.144554, mRNA vs vehicle control group): −
- Behavior of gene caused by administration of chemical substance, Gene No. 2026 [3, 5]: −
- Behavior of gene caused by administration of chemical substance, Gene No. 4218 [3, 5]: −
- Behavior of gene caused by administration of chemical substance, Gene No. 6182 ([3]; gene group (A), Unigene No. Rn.5834, mRNA vs vehicle control group): +
- Behavior of gene caused by administration of chemical substance, Gene No. 5600 ([3]; gene group (A), Unigene No. Rn.9836, mRNA vs vehicle control group): −
- Behavior of gene caused by administration of chemical substance, Gene No. 1494 ([3]; gene group (B), Unigene No. Rn.1430, mRNA vs vehicle control group): −
- Behavior of gene caused by administration of chemical substance, Gene No. 2045 ([3]; gene group (B), Unigene No. Rn.19329, mRNA vs vehicle control group): +
- Behavior of gene caused by administration of chemical substance, Gene No. 2203 ([3]; gene group (B), Unigene No. Rn.21240, mRNA vs vehicle control group): +
- Behavior of gene caused by administration of chemical substance, Gene No. 533 ([3]; gene group (C), Unigene No. Rn.106184, mRNA vs vehicle control group): −
- Behavior of gene caused by administration of chemical substance, Gene No. 725 ([3]; gene group (C), Unigene No. Rn.108075, mRNA vs vehicle control group): −
- Behavior of gene caused by administration of chemical substance, Gene No. 1163 ([3]; gene group (C), Unigene No. Rn.11766, mRNA vs vehicle control group): −
- Behavior of gene caused by administration of chemical substance, Gene No. 4973 ([3]; gene group (C), Unigene No. Rn.118529, mRNA vs vehicle control group): −
- Behavior of gene caused by administration of chemical substance, Gene No. 4095 ([3]; gene group (C), Unigene No. Rn.119024, mRNA vs vehicle control group): −
- Behavior of gene caused by administration of chemical substance, Gene No. 1334 [3, 6]: −
- Behavior of gene caused by administration of chemical substance, Gene No. 6620 [3, 6]: −
- Behavior of gene caused by administration of chemical substance, Gene No. 6303 ([3]; gene group (C), Unigene No. Rn.123063, mRNA vs vehicle control group): −
- Behavior of gene caused by administration of chemical substance, Gene No. 5878 ([3]; gene group (C), Unigene No. Rn.143213, mRNA vs vehicle control group): −
- Behavior of gene caused by administration of chemical substance, Gene No. 1131 ([3]; gene group (C), Unigene No. Rn.144946, mRNA vs vehicle control group): −
- Behavior of gene caused by administration of chemical substance, Gene No. 1562 ([3]; gene group (C), Unigene No. Rn.14744, mRNA vs vehicle control group): −
- Behavior of gene caused by administration of chemical substance, Gene No. 1741 ([3]; gene group (C), Unigene No. Rn.1647, mRNA vs vehicle control group): −
- Behavior of gene caused by administration of chemical substance, Gene No. 893 ([3]; gene group (C), Unigene No. Rn.164817, mRNA vs vehicle control group): −
- Behavior of gene caused by administration of chemical substance, Gene No. 6026 ([3]; gene group (C), Unigene No. Rn.167685, mRNA vs vehicle control group): −
- Behavior of gene caused by administration of chemical substance, Gene No. 154 ([3]; gene group (C), Unigene No. Rn.185941, mRNA vs vehicle control group): −
- Behavior of gene caused by administration of chemical substance, Gene No. 1993 ([3]; gene group (C), Unigene No. Rn.18728, mRNA vs vehicle control group): −
- Behavior of gene caused by administration of chemical substance, Gene No. 813 ([3]; gene group (C), Unigene No. Rn.201760, mRNA vs vehicle control group): −
- Behavior of gene caused by administration of chemical substance, Gene No. 2494 ([3]; gene group (C), Unigene No. Rn.23969, mRNA vs vehicle control group): +
- Behavior of gene caused by administration of chemical substance, Gene No. 2546 ([3]; gene group (C), Unigene No. Rn.24561, mRNA vs vehicle control group): −
- Behavior of gene caused by administration of chemical substance, Gene No. 3776 ([3]; gene group (C), Unigene No. Rn.43232, mRNA vs vehicle control group): −
- Behavior of gene caused by administration of chemical substance, Gene No. 3929 ([3]; gene group (C), Unigene No. Rn.4620, mRNA vs vehicle control group): −
- Behavior of gene caused by administration of chemical substance, Gene No. 1119 ([3]; gene group (C), Unigene No. Rn.9757, mRNA vs vehicle control group): −
- Behavior of gene caused by administration of chemical substance, Gene No. 6742 ([3]; gene group (C), Unigene No. Rn.9779, mRNA vs vehicle control group): −
- Behavior of gene caused by administration of chemical substance, Gene No. 5634 ([3]; gene group (C), Unigene No. Rn.9862, mRNA vs vehicle control group): −
- Behavior of gene caused by administration of chemical substance, Gene No. 5726 ([3]; gene group (D), Unigene No. Rn.9939, mRNA vs vehicle control group): −
